The structures appear in SMILES notation. Some results are limits rather than exact numbers.

In one test the target is T1, Thromboxane A2 receptor (Homo sapiens) (UniProt P21731).
T1 sequence (whole entry): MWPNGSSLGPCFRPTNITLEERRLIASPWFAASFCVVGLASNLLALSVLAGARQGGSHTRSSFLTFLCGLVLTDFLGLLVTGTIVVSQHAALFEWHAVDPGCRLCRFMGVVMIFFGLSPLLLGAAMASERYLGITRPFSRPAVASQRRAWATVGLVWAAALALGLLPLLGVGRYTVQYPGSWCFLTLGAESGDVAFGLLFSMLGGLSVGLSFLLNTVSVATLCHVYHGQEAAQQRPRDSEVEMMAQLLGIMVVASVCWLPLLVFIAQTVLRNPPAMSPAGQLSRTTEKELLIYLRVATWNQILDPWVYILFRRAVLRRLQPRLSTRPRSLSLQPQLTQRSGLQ
Description: Competition factor for Thromboxane A2 (TXA2) / Prostaglandin H2 (PGH2)-receptor was determined by CF=(ID50-test)/(ID50-standard); antagonist. In kind it is functional.
With `O=C(O)CCC/C=C/C[C@@H]1[C@@H](COCc2ccccc2)C2CC1(c1ccccc1)CO2` (some centres not stated), the CF is 300.

The target of the next test is T1, Thromboxane A2 receptor (Homo sapiens). Description: Competition factor for Thromboxane A2 (TXA2) / Prostaglandin H2 (PGH2)-receptor was determined by CF=(ID50-test)/(ID50-standard).
`CCC#CC[C@H](C)[C@H](O)C#C[C@@H]1C2CC(c3ccc(F)cc3)(CO2)[C@H]1C/C=C/CCCC(=O)O` (some centres not stated) returned a CF of 4.

`O=C(O)CCC/C=C/C[C@H]1[C@H](NS(=O)(=O)c2ccc(F)cc2)C2CC1(c1ccc(O)cc1)CO2` (some centres not stated) displayed a CF of 30. In turn, `CCCCC[C@H](O)/C=C/[C@H]1C2CC(CCc3ccccc3)(CO2)[C@@H]1C/C=C/CCCC(=O)O` (some centres not stated) gave a CF of 420. Same read-out and setting: the value for `O=C(O)CCCCC[C@H]1[C@H](CNS(=O)(=O)c2ccc(F)cc2)C2CC1(c1ccc(-c3ccccc3)cc1)CO2` (some centres not stated) was 0.1; that for `CC12COC(C1)[C@H](COCc1ccccc1)[C@H]2C/C=C/CCCC(=O)O` (some centres not stated) was more than 1000; that for `CCCCC[C@H](O)/C=C/[C@@H]1C2CC(c3ccc(F)cc3)(CO2)[C@H]1C/C=C/CCCC(=O)O` (some centres not stated) was 25. Regarding `O=C(O)CCCCCC[C@H]1[C@H](CNS(=O)(=O)c2ccc(Cl)c(Cl)c2)C2CC1(c1ccc(-c3ccccc3)cc1)CO2` (some centres not stated), the CF was 12. As for `O=C(O)CCC/C=C/C[C@@H]1[C@@H](COCc2ccccc2)C2CC1(c1ccc(F)cc1)CO2` (some centres not stated), the CF was found to be 125.

Take `O=C(O)CCC/C=C/C[C@H]1[C@H](COCc2ccccc2)C2CC1(c1ccc(F)cc1)CO2` (some centres not stated): the CF is 60.

Molecule `Cc1ccc(S(=O)(=O)N[C@@H]2C3CC(c4cccc(F)c4)(CO3)[C@H]2C/C=C/CCCC(=O)O)cc1` (some centres not stated) had a CF of 120.

Consider `Cc1ccc(S(=O)(=O)N[C@@H]2C3CC(c4ccc(F)cc4)(CO3)[C@H]2C/C=C/CCCC(=O)O)cc1` (some centres not stated), for which the CF is 170. For `O=C(O)CCC/C=C/C[C@@H]1[C@@H](COCc2ccccc2)C2CC1(C#Cc1ccccc1)CO2` (stereo in doubt), the CF was determined as 30. Consider `CCCC#CC12COC(C1)[C@H](COCc1ccccc1)[C@H]2C/C=C/CCCC(=O)O` (some centres not stated), for which the CF was 90. In turn, `Cc1ccc(S(=O)(=O)NC[C@@H]2C3CC(c4ccc(-c5ccccc5)cc4)(CO3)[C@H]2CCCCCC(=O)O)cc1` (some centres not stated) registered a CF of 0.1. The same measure, in the same setting: the value for `N#Cc1ccc(COC[C@H]2C3CC(c4ccc(F)cc4)(CO3)[C@@H]2C/C=C/CCCC(=O)O)cc1` (some centres not stated) was 900; that for `O=C(O)CCC/C=C/C[C@H]1[C@H](/C=N/Oc2ccc(F)cc2)C2CC1(c1ccc(F)cc1)CO2` (some centres not stated) was 16; that for `CCC#CC[C@H](C)[C@H](O)/C=C/[C@@H]1C2CC(c3ccc(F)cc3)(CO2)[C@H]1C/C=C/CCCC(=O)O` (some centres not stated) was 26. Molecule `CCCCC[C@H](O)/C=C/[C@H]1C2CC(Cc3ccccc3)(CO2)[C@@H]1C/C=C/CCCC(=O)O` (some centres not stated) displayed a CF of 250.

Consider `O=C(O)CCC/C=C/C[C@@H]1[C@@H](COCc2ccccc2)C2CC1(Cc1ccccc1)CO2` (some centres not stated), for which the CF stood at 300.

As to `Cc1ccc(S(=O)(=O)N[C@@H]2C3CC(c4ccc(-c5ccccc5)cc4)(CO3)[C@H]2C/C=C/CCCC(=O)O)cc1` (some centres not stated), the CF was determined as 2. As to `O=C(O)CCC/C=C/C[C@H]1[C@H](NS(=O)(=O)c2ccc(F)cc2)C2CC1(c1ccc(-c3ccccc3)cc1)CO2` (some centres not stated), the CF amounted to 2. The same measure, in the same setting: the value for `O=C(O)CCC/C=C/C[C@H]1C2COC(C2)[C@@H]1COCc1ccccc1` (some centres not stated) was more than 1000; that for `O=C(O)CCCCCC[C@H]1[C@H](CNS(=O)(=O)c2ccc(Cl)cc2)C2CC1(c1ccc(-c3ccccc3)cc1)CO2` (some centres not stated) was 1.4; that for `Cc1ccc(S(=O)(=O)N[C@@H]2C3CC(c4ccc(O)cc4)(CO3)[C@H]2C/C=C/CCCC(=O)O)cc1` (some centres not stated) was 520. `O=C(O)CCC/C=C/C[C@@H]1[C@@H](COCc2ccccc2)C2CC1(c1ccccc1)CO2` (some centres not stated) yielded a CF of 300.

Turning to `O=C(O)CCC/C=C/C[C@H]1[C@H](NS(=O)(=O)c2ccc(F)cc2)C2CC1(c1cccc(F)c1)CO2` (some centres not stated), the CF turned out to be 250. Still for that read-out and setting: for `O=C(O)CCC/C=C/C[C@@H]1[C@@H](COCc2ccccc2)C2CC1(C#Cc1ccccc1)CO2` (stereo in doubt; 8a) the value was 30; for `O=C(O)CCC/C=C/C[C@@H]1[C@@H](/C=C/[C@@H](O)COc2ccc(F)cc2)C2CC1(c1ccc(F)cc1)CO2` (some centres not stated), 375; for `O=C(O)CCCCC[C@H]1[C@H](CNS(=O)(=O)c2ccc(Cl)c(Cl)c2)C2CC1(c1ccc(-c3ccccc3)cc1)CO2` (some centres not stated), 5. On to `O=C(O)CCC/C=C/C[C@H]1[C@H](COCc2ccccc2)C2CC1(c1ccccc1)CO2` (some centres not stated), for which the CF came to 60. As for `Cc1ccc(S(=O)(=O)NC[C@@H]2C3CC(c4ccc(-c5ccccc5)cc4)(CO3)[C@H]2C/C=C\CCC(=O)O)cc1` (some centres not stated), the CF was 0.05. `CCCCC[C@H](O)/C=C/[C@H]1C2CC(c3ccc(F)cc3)(CO2)[C@@H]1C/C=C/CCCC(=O)O` (some centres not stated) gave a CF of 650.

Take `O=C(O)CCC/C=C/C[C@H]1[C@H](COCc2ccccc2)C2CC1(C#Cc1ccccc1)CO2` (some centres not stated): the CF was determined as 12. Same read-out and setting: the value for `O=C(O)CCC/C=C/C[C@@H]1[C@@H](COCc2ccccc2)C2CC1(Cc1ccc(-c3ccccc3)cc1)CO2` (some centres not stated) was 800; that for `O=C(O)CCC/C=C/C[C@H]1[C@H](NS(=O)(=O)c2ccc(F)cc2)C2CC1(c1ccc(F)cc1)CO2` (some centres not stated) was 120; that for `O=C(O)CCC/C=C/C[C@H]1[C@H](/C=N/Oc2ccc(F)cc2)C2CC1(c1cccc(F)c1)CO2` (some centres not stated) was 10. The molecule `O=C(O)CCC/C=C/C[C@H]1[C@H](/C=N/Oc2ccc(F)cc2)C2CC1(c1ccc(-c3ccccc3)cc1)CO2` (some centres not stated) registered a CF of 16. For `O=C(O)CC/C=C\C[C@H]1[C@H](CNS(=O)(=O)c2ccc(F)cc2)C2CC1(c1ccc(-c3ccccc3)cc1)CO2` (some centres not stated), the CF is 0.05.

The target is the same in a further test. Description: Competition factor for Thromboxane A2 (TXA2) / Prostaglandin H2 (PGH2)-receptor was determined by CF=(ID50-test)/(ID50-standard); agonist. In kind it is functional.
`CCCCC[C@H](O)/C=C/[C@H]1C2CC(C)(CO2)[C@@H]1C/C=C/CCCC(=O)O` (some centres not stated) returned a CF of 320.

As for `O=C(O)CCC/C=C/C[C@@H]1[C@@H](COCc2ccccc2)C2CC1(CCc1ccccc1)CO2` (some centres not stated), the CF came out at 750. For `CCCCC[C@H](O)/C=C/[C@H]1C2CC(CO2)[C@@H]1CC=CCCCC(=O)O` (some centres not stated), the CF was 36.

The target is the same in a further test. Description: Competition factor for Thromboxane A2 (TXA2) / Prostaglandin H2 (PGH2)-receptor was determined by CF=(ID50-test)/(ID50-standard); not parallel.
Consider `Cc1ccc(S(=O)(=O)NC[C@@H]2C3CC(c4ccc(-c5ccccc5)cc4)(CO3)[C@H]2CC=CCCCC(=O)O)cc1` (some centres not stated), for which the CF was determined as 4. The same measure, in the same setting: for `O=C(O)CC/C=C\C[C@H]1[C@H](CNS(=O)(=O)c2ccc(Cl)cc2)C2CC1(c1ccc(-c3ccccc3)cc1)CO2` (some centres not stated) the value was 0.1.

`O=C(O)CCC/C=C\C[C@H]1[C@H](CNS(=O)(=O)c2ccc(Cl)cc2)C2CC1(c1ccc(-c3ccccc3)cc1)CO2` (some centres not stated) gave a CF of 0.4. `O=C(O)CCCCC[C@H]1[C@H](CNS(=O)(=O)c2ccc(Cl)cc2)C2CC1(c1ccc(-c3ccccc3)cc1)CO2` (some centres not stated) returned a CF of 0.3.

Molecule `O=C(O)CCCCC[C@H]1[C@H](CNS(=O)(=O)c2ccc(Cl)c(Cl)c2)C2CC1(c1ccc(-c3ccccc3)cc1)CO2` (some centres not stated) had a CF of 6. Same read-out and setting: for `O=C(O)CCC/C=C\C[C@H]1[C@H](CNS(=O)(=O)c2ccc(Cl)c(Cl)c2)C2CC1(c1ccc(-c3ccccc3)cc1)CO2` (some centres not stated) the value was 4.2.

Another test shares this target. Description: Competition factor for Thromboxane A2 (TXA2) / Prostaglandin H2 (PGH2)-receptor was determined by CF=(ID50-test)/(ID50-standard); partial agonist. It is filed as functional.
In turn, `O=C(O)CCC/C=C/C[C@H]1[C@H](/C=C/[C@@H](O)COc2ccc(F)cc2)C2CC1(c1ccc(F)cc1)CO2` (some centres not stated) showed a CF of 2. Take `CCC#CC[C@H](C)[C@H](O)C#C[C@@H]1C2CC(c3ccc(-c4ccccc4)cc3)(CO2)[C@H]1C/C=C/CCCC(=O)O` (some centres not stated): the CF was determined as 12. Take `N#Cc1ccc(COC[C@@H]2C3CC(c4ccc(F)cc4)(CO3)[C@H]2C/C=C/CCCC(=O)O)cc1` (some centres not stated): the CF turned out to be 6. On the same count and under the same terms, the value for `CCC#CC[C@H](C)[C@H](O)/C=C/[C@@H]1C2CC(c3ccc(-c4ccccc4)cc3)(CO2)[C@H]1C/C=C/CCCC(=O)O` (some centres not stated) was 20.

Values taken from ChEMBL document CHEMBL1126454, “Syntheses of new TXA2/PGH2-receptor antagonists and their biological properties” (Bioorg Med Chem Lett, 1992).
